From patent US20020026053A1, “Novel 3-(substituted) -2- indolinones compounds and use thereof as inhibitors of protein kinase activity” (priority 1997, published 2002)

What follows are compounds tested on FLK-1 receptor (assay: FLK-1 Assay (cellular/catalytic ELISA, VEGF-stimulated phosphotyrosine)). Settings: protocol P.110.
Assay type: cell-based
Parameters: concentration or dose not given beside the values
Summary of the method: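 NIH3T3 C7#3 cells engineered to express Flk-1 were serum-starved overnight (0.1% FBS), then exposed to compound for 2 h at 37 °C (final dilution 1:200, 0.5% DMSO) before VEGF stimulation. Lysates captured on anti-FLK-1 antiserum plates; phosphotyrosine detected by UB40 antibody/POD-ABTS ELISA versus untreated controls.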

| Compound | Flk Kinase % Inhibition (P.110) |
| --- | --- |
| COC1CCCN1C=C1C(=O)Nc2c(Br)cc(Br)cc21 (racemic) [10740/A04] | 1.3% |
| COC1CCCN1C=C1C(=O)Nc2ccc(I)cc21 (racemic) [10740/B04] | −0.3% |
| Cc1c(Br)cc(Br)c2c1C(=Cc1ccc(CO)o1)C(=O)N2 [10739/H11] | −7.6% |
| O=C1Nc2c(Br)cc(Br)cc2C1=Cc1cnc2ccccc2c1 [10740/A02] | 5.7% |
| O=C1Nc2c(Br)cc(Br)cc2C1=Cc1ccnc2ccccc12 [10740/A03] | 4.2% |
| O=C1Nc2c(Br)cc(Br)cc2C1=Cc1ccsc1 [10740/A05] | −13.1% |
| O=C1Nc2c(Br)cc(Br)cc2C1=Cc1ccc2ccccc2n1 [10740/A06] | −8.7% |
| Cn1cc(C=C2C(=O)Nc3c(Br)cc(Br)cc32)c2ccccc21 [10740/A07] | −18.3% |
| Cc1[nH]c2ccccc2c1C=C1C(=O)Nc2c(Br)cc(Br)cc21 [10740/A08] | −18.3% |
| O=C1Nc2c(Br)cc(Br)cc2C1=Cc1cc(Br)cs1 [10740/A10] | −7.7% |
| CCCCOc1ccc(C=C2C(=O)Nc3c(Br)cc(Br)cc32)cc1 [10740/A11] | −3.5% |
| O=C1Nc2ccc(I)cc2C1=Cc1cnc2ccccc2c1 [10740/B02] | −17.0% |
| O=C1Nc2ccc(I)cc2C1=Cc1ccnc2ccccc12 [10740/B03] | −9.3% |
| O=C1Nc2ccc(I)cc2C1=Cc1ccsc1 [10740/B05] | −11.6% |
| O=C1Nc2ccc(I)cc2C1=Cc1ccc2ccccc2n1 [10740/B06] | −5.9% |
| Cn1cc(C=C2C(=O)Nc3ccc(I)cc32)c2ccccc21 [10740/B07] | −8.5% |
| Cc1[nH]c2ccccc2c1C=C1C(=O)Nc2ccc(I)cc21 [10740/B08] | 6.6% |
| O=C1Nc2ccc(I)cc2C1=Cc1cc(Br)cs1 [10740/B10] | 11.8% |
| CCCCOc1ccc(C=C2C(=O)Nc3ccc(I)cc32)cc1 [10740/B11] | 0.7% |
| Cc1c(Br)ccc2c1C(=Cc1cnc3ccccc3c1)C(=O)N2 [10740/C02] | −5.9% |
| Cc1c(Br)ccc2c1C(=Cc1ccnc3ccccc13)C(=O)N2 [10740/C03] | −129.3% |
| COC1CCCN1C=C1C(=O)Nc2ccc(Br)c(C)c21 (stereo not shown) [10740/C04] | −3.4% |
| Cc1c(Br)ccc2c1C(=Cc1ccsc1)C(=O)N2 [10740/C05] | −19.1% |
| Cc1c(Br)ccc2c1C(=Cc1ccc3ccccc3n1)C(=O)N2 [10740/C06] | −19.1% |
| Cc1c(Br)ccc2c1C(=Cc1cn(C)c3ccccc13)C(=O)N2 [10740/C07] | 1.1% |

| Compound | Flk Kinase % Inhibition (P.110) |
| --- | --- |
| Cc1[nH]c2ccccc2c1C=C1C(=O)Nc2ccc(Br)c(C)c21 [10740/C08] | 4.6% |
| Cc1c(Br)ccc2c1C(=Cc1cc(Br)cs1)C(=O)N2 [10740/C10] | 0.8% |
| CCCCOc1ccc(C=C2C(=O)Nc3ccc(Br)c(C)c32)cc1 [10740/C11] | 6.9% |
| CNS(=O)(=O)c1ccc2c(c1)C(=Cc1cnc3ccccc3c1)C(=O)N2 [10740/D02] | 4.1% |
| CNS(=O)(=O)c1ccc2c(c1)C(=Cc1ccnc3ccccc13)C(=O)N2 [10740/D03] | 15.1% |
| CNS(=O)(=O)c1ccc2c(c1)C(=CN1CCCC1OC)C(=O)N2 (stereo not shown) [10740/D04] | −2.0% |
| CNS(=O)(=O)c1ccc2c(c1)C(=Cc1ccsc1)C(=O)N2 [10740/D05] | −6.3% |
| CNS(=O)(=O)c1ccc2c(c1)C(=Cc1ccc3ccccc3n1)C(=O)N2 [10740/D06] | 9.6% |
| CNS(=O)(=O)c1ccc2c(c1)C(=Cc1cn(C)c3ccccc13)C(=O)N2 [10740/D07] | −4.5% |
| CNS(=O)(=O)c1ccc2c(c1)C(=Cc1c(C)[nH]c3ccccc13)C(=O)N2 [10740/D08] | −6.4% |
| CNS(=O)(=O)c1ccc2c(c1)C(=Cc1cc(Br)cs1)C(=O)N2 [10740/D10] | 1.5% |
| CCCCOc1ccc(C=C2C(=O)Nc3ccc(S(=O)(=O)NC)cc32)cc1 [10740/D11] | 3.0% |
| O=C1Nc2ccc(S(=O)(=O)Nc3ccc(C(F)(F)F)cc3)cc2C1=Cc1cnc2ccccc2c1 [10740/E02] | 9.6% |
| O=C1Nc2ccc(S(=O)(=O)Nc3ccc(C(F)(F)F)cc3)cc2C1=Cc1ccnc2ccccc12 [10740/E03] | 0.2% |
| COC1CCCN1C=C1C(=O)Nc2ccc(S(=O)(=O)Nc3ccc(C(F)(F)F)cc3)cc21 (stereo not shown) [10740/E04] | 2.0% |
| O=C1Nc2ccc(S(=O)(=O)Nc3ccc(C(F)(F)F)cc3)cc2C1=Cc1ccsc1 [10740/E05] | 28.7% |
| O=C1Nc2ccc(S(=O)(=O)Nc3ccc(C(F)(F)F)cc3)cc2C1=Cc1ccc2ccccc2n1 [10740/E06] | −8.4% |
| Cn1cc(C=C2C(=O)Nc3ccc(S(=O)(=O)Nc4ccc(C(F)(F)F)cc4)cc32)c2ccccc21 [10740/E07] | 34.4% |
| Cc1[nH]c2ccccc2c1C=C1C(=O)Nc2ccc(S(=O)(=O)Nc3ccc(C(F)(F)F)cc3)cc21 [10740/E08] | 39.1% |
| O=C1Nc2ccc(S(=O)(=O)Nc3ccc(C(F)(F)F)cc3)cc2C1=Cc1cc(Br)cs1 [10740/E10] | 11.8% |
| CCCCOc1ccc(C=C2C(=O)Nc3ccc(S(=O)(=O)Nc4ccc(C(F)(F)F)cc4)cc32)cc1 [10740/E11] | 17.1% |
| O=C1Nc2ccc(S(=O)(=O)N3CCOCC3)cc2C1=Cc1cnc2ccccc2c1 [10740/F02] | 2.8% |
| O=C1Nc2ccc(S(=O)(=O)N3CCOCC3)cc2C1=Cc1ccnc2ccccc12 [10740/F03] | −0.9% |
| COC1CCCN1C=C1C(=O)Nc2ccc(S(=O)(=O)N3CCOCC3)cc21 (stereo not shown) [10740/F04] | 6.8% |
| O=C1Nc2ccc(S(=O)(=O)N3CCOCC3)cc2C1=Cc1ccsc1 [10740/F05] | −13.5% |

| Compound | Flk Kinase % Inhibition (P.110) |
| --- | --- |
| O=C1Nc2ccc(S(=O)(=O)N3CCOCC3)cc2C1=Cc1ccc2ccccc2n1 [10740/F06] | 1.3% |
| Cn1cc(C=C2C(=O)Nc3ccc(S(=O)(=O)N4CCOCC4)cc32)c2ccccc21 [10740/F07] | −6.3% |
| Cc1[nH]c2ccccc2c1C=C1C(=O)Nc2ccc(S(=O)(=O)N3CCOCC3)cc21 [10740/F08] | −5.0% |
| O=C1Nc2ccc(S(=O)(=O)N3CCOCC3)cc2C1=Cc1cc(Br)cs1 [10740/F10] | 10.0% |
| CCCCOc1ccc(C=C2C(=O)Nc3ccc(S(=O)(=O)N4CCOCC4)cc32)cc1 [10740/F11] | 8.2% |
| O=C1Nc2ccc(CCCl)cc2C1=Cc1cnc2ccccc2c1 [10740/G02] | −2.6% |
| O=C1Nc2ccc(CCCl)cc2C1=Cc1ccnc2ccccc12 [10740/G03] | −2.0% |
| COC1CCCN1C=C1C(=O)Nc2ccc(CCCl)cc21 (stereo not shown) [10740/G04] | −5.1% |
| O=C1Nc2ccc(CCCl)cc2C1=Cc1ccsc1 [10740/G05] | −18.6% |
| O=C1Nc2ccc(CCCl)cc2C1=Cc1ccc2ccccc2n1 [10740/G06] | −19.3% |
| Cn1cc(C=C2C(=O)Nc3ccc(CCCl)cc32)c2ccccc21 [10740/G07] | 0.4% |
| Cc1[nH]c2ccccc2c1C=C1C(=O)Nc2ccc(CCCl)cc21 [10740/G08] | −0.5% |
| O=C1Nc2ccc(CCCl)cc2C1=Cc1cc(Br)cs1 [10740/G10] | −2.8% |
| CCCCOc1ccc(C=C2C(=O)Nc3ccc(CCCl)cc32)cc1 [10740/G11] | 3.3% |
| Cc1c(Br)cc(Br)c2c1C(=Cc1cnc3ccccc3c1)C(=O)N2 [10740/H02] | −3.7% |
| Cc1c(Br)cc(Br)c2c1C(=Cc1ccnc3ccccc13)C(=O)N2 [10740/H03] | −9.7% |
| COC1CCCN1C=C1C(=O)Nc2c(Br)cc(Br)c(C)c21 (stereo not shown) [10740/H04] | 6.0% |
| Cc1c(Br)cc(Br)c2c1C(=Cc1ccsc1)C(=O)N2 [10740/H05] | 5.8% |
| Cc1c(Br)cc(Br)c2c1C(=Cc1ccc3ccccc3n1)C(=O)N2 [10740/H06] | 3.2% |
| Cc1c(Br)cc(Br)c2c1C(=Cc1cn(C)c3ccccc13)C(=O)N2 [10740/H07] | 10.1% |
| Cc1[nH]c2ccccc2c1C=C1C(=O)Nc2c(Br)cc(Br)c(C)c21 [10740/H08] | 11.5% |
| Cc1c(Br)cc(Br)c2c1C(=Cc1cc(Br)cs1)C(=O)N2 [10740/H10] | 0.4% |
| CCCCOc1ccc(C=C2C(=O)Nc3c(Br)cc(Br)c(C)c32)cc1 [10740/H11] | 7.4% |
